Measurements published in patent US20220387435A1, “USE OF MULTI-TARGET PROTEIN KINASE INHIBITOR” (CSPC Zhongqi Pharmaceutical Technology (Shijiazhuang) Co., …, priority 2019, published 2022).
“And” between values parts separate entries of the source, which are not always exact repeats. Equal entries are not always repeated.

Test system: Chinese adult subjects with FLT3-mutant R/R AML
Assay: Phase II clinical study, efficacy
Assay type: in vivo, human
Conditions: for Overall CR rate (95% CI), (CR+CRh+CRi)/enrolled subjects / best efficacy: CR / best efficacy: CRh / best efficacy: CRi / best efficacy: NE / best efficacy: PD / best efficacy: PR / best efficacy: SD: FAS; for disengagement from blood transfusion: the CR and the CRh subject
Experimental: 28 consecutive days was regarded as one treatment cycle.
The trial started with the 150 mg BID group, and after completing the first cycle of the tolerability investigation of 3 subjects in this group, the tolerability study of the 200 mg BID group was carried out. The principle of the subject enrollment was to give priority to meeting three subjects in the tolerability investigation period. Since the 300 mg QD group had been proven to be well tolerated in a single tolerability trial, other qualified subjects screened during the tolerability investigation period could directly enter the 300 mg QD group.
The second stage was the dose expansion period. After the completion of the first cycle of the study in a dose group, if the investigator assessed that the subjects had significant benefits, the dose group would undergo the cohort expansion to further explore possible effective doses, and continue to increase to at least 10 subjects. During this period, investigators, sponsors, quantitative pharmacology experts, clinical pharmacology experts, and statistical experts discussed whether to continue the cohort expansion according to the efficacy of the dose group (see FIG. 1 for the specific trial method).
Overall CR (CR, CRh, CRi) rate: defined as the proportion of subjects who achieved CR, CRh, CRi during Compound A treatment among all subjects enrolled in this study. Subjects who were not assessed for response were included in the denominator when calculating the response rate.
(1) Three year overall survival (OS): the OS time was referred to the time from the first drug administration to the death from any cause within 3 years.
(2) Three year event-free survival (EFS): it was referred to the time from the randomized enrollment to the first occurrence of any of the following conditions within 3 years: (1) no CR (CR, CRh, CRi) occurred within 6 months of treatment, (2) relapsed after reaching the specified CR (CR, CRh, CRi), (3) disease progression, (4) all-cause death at any time during the study, whichever occurred first.
(3) Duration of response-CR (DoR-CR): the DoR-CR time was referred to the time from the first achievement of CR to the recording of hematological relapse, extramedullary disease, or death from any cause (whichever was earlier).

[1] = 0 unfavorable prognostic factors (4 subjects)
[2] = 1 unfavorable prognostic factor (9 subjects)
[3] = 2 unfavorable prognostic factors (15 subjects)
[4] = 3 subjects with FLT3-ITD^high mutation (≥0.5)
[5] = 3 subjects with FLT3-ITD^low mutation (<0.5)
[6] = 10 subjects with prior sorafenib treatment

CC(C)n1c(Nc2cccnc2)nc2cnc(Nc3ccc(N4CCN(C)CC4)cc3)nc21 [Compound A]
CRh [1]: 2 subjects | CRi [1]: 1 subjects | Overall CR rate [1]: 75% | Overall CR rate (0 unfavorable prognostic factors (4 subjects), listed as compound A): 75% | Overall CR rate (95% CI), (CR+CRh+CRi)/enrolled subjects (150 mg BID group (N = 14)): 28.6 (8.39-58.10) % | best efficacy: CR (150 mg BID group (N = 14)): 1 (7.1%) n (%) and 1 (7.1) n (%) | best efficacy: CRh (150 mg BID group (N = 14)): 1 (7.1%) n (%) and 1 (7.1) n (%) | best efficacy: CRi (150 mg BID group (N = 14)): 2 (14.3%) n (%) and 2 (14.3) n (%) | best efficacy: NE (150 mg BID group (N = 14)): 2 (14.3) n (%) | best efficacy: PD (150 mg BID group (N = 14)): 1 (7.1) n (%) | best efficacy: PR (150 mg BID group (N = 14)): 2 (14.3) n (%) | best efficacy: SD (150 mg BID group (N = 14)): 5 (35.7) n (%) | survival rate (150 mg BID group, 3-month): 64.3% | survival rate (150 mg BID group, 6-month): 38.6% | survival rate (150 mg BID group, 9-month): 25.7% | survival rate (150 mg BID group, 11-month): 25.7% | CR/CRh cases (150 mg BID group, 14 subjects): 2 (14.3%) n (%) | disengagement from blood transfusion (150 mg BID group): ≥ 56 days | median EFS (150 mg BID group, 95% CI 1.3-5.9): 4.9 months | median OS (150 mg BID group, 95% CI 2.3-NC): 4.2 months | median time to the first CR (150 mg BID group, range 2-3 months): 2.5 months | Overall CR rate (95% CI), (CR+CRh+CRi)/enrolled subjects (200 mg BID group (N = 4)): 0 (0.00-60.24) % | best efficacy: CR (200 mg BID group (N = 4)): 0 (0) n (%) | best efficacy: CRh (200 mg BID group (N = 4)): 0 (0) n (%) | best efficacy: CRi (200 mg BID group (N = 4)): 0 (0) n (%) | best efficacy: NE (200 mg BID group (N = 4)): 1 n (%) and 1 (25.0) n (%) | best efficacy: PD (200 mg BID group (N = 4)): 0 (0) n (%) | best efficacy: PR (200 mg BID group (N = 4)): 0 (0) n (%) | best efficacy: SD (200 mg BID group (N = 4)): 3 n (%) and 3 (75.0) n (%) | survival rate (200 mg BID group, 3-month): 25% | median EFS (200 mg BID group, 95% CI 0.7-3.0): 2.3 months | median OS (200 mg BID group, 95% CI 0.7-NC): 2.9 months | Overall CR rate (95% CI), (CR+CRh+CRi)/enrolled subjects (300 mg QD group (N = 13)): 30.8 (9.09-61.43) % | best efficacy: CR (300 mg QD group (N = 13)): 1 n (%) and 1 (7.7) n (%) | best efficacy: CRh (300 mg QD group (N = 13)): 1 n (%) and 1 (7.7) n (%) | best efficacy: CRi (300 mg QD group (N = 13)): 2 n (%) and 2 (15.4) n (%) | best efficacy: NE (300 mg QD group (N = 13)): 0 (0) n (%) | best efficacy: PD (300 mg QD group (N = 13)): 0 (0) n (%) | best efficacy: PR (300 mg QD group (N = 13)): 0 (0) n (%) | best efficacy: SD (300 mg QD group (N = 13)): 9 (69.2) n (%) | survival rate (300 mg QD group, 3-month): 75.2% | survival rate (300 mg QD group, 6-month): 50.1% | disengagement from blood transfusion (300 mg QD group): ≥ 56 days | median EFS (300 mg QD group, 95% CI 1.7-6.2): 2.9 months | median OS (300 mg QD group, 95% CI 2.7-NC): 4.4 months | median time to the first CR (300 mg QD group, range 1-3 months): 1.5 months | CRi [2]: 2 subjects | NE [2]: 1 subjects | Overall CR rate [2]: 20% | PR [2]: 1 subjects | CR [3]: 2 subjects | CRi [3]: 1 subjects | Overall CR rate [3]: 20% | PR [3]: 1 subjects | subjects achieving CRh [4]: 2 subjects | subjects achieving SD [4]: 1 subject | subjects achieving PR as the best response [5]: 1 subject | subjects achieving SD as the best response [5]: 2 subjects | Overall CR rate (3 unfavorable prognostic factors (3 subjects)): 0% | proportion of the M5 subjects among subjects who achieved CR/CRh/CRi (8 subjects with CR/CRh/CRi): 62.5% | subjects achieving CRi (9 subjects with TKD mutations): 2 subjects | subjects achieving CR [6]: 1 subject | subjects achieving CRh [6]: 1 subject | subjects achieving CRi [6]: 1 subject | subjects achieving CR (22 subjects with ITD mutations): 2 subjects | subjects achieving CRh (22 subjects with ITD mutations): 2 subjects | subjects achieving CRi (22 subjects with ITD mutations): 2 subjects | median EFS (31 subjects, 95% CI 2.6-5.4): 3.0 months | median OS (31 subjects, 95% CI 2.9-NC): 4.4 months | response (Case 2, 300 mg QD, at C3): CRi | response (Case 2, 300 mg QD, at C4): CRh | response (Case 3, 300 mg QD, C2): CRi | response (Case 3, 300 mg QD, C3): CRh | myeloblast (Case 3, 300 mg QD, in C2 (from 33.5%)): 3% | myeloblast (Case 3, 300 mg QD, in C3): 2% | response (Case 4, 150 mg BID, at C2): CRi | response (Case 4, 150 mg BID, at C3): CRh | duration of the CR response (Case 5, 150 mg BID): 5 cycles | response (Case 5, 150 mg BID, C11): CRi | response (Case 5, 150 mg BID, C12): CRi | myeloblast (Case 5, 150 mg BID, after C1): 3% | CR/CRh/CRi proportion (FAB M2 type (1/6)): 16.7% | CR/CRh/CRi proportion (FAB M4 type (2/9)): 22.2% | CR/CRh/CRi proportion (FAB M5 type (5/14)): 35.7% | Overall CR rate (95% CI), (CR+CRh+CRi)/enrolled subjects (Total (N = 31)): 25.8 (11.86-44.61) % | best efficacy: CR (Total (N = 31)): 2 (6.5%) n (%) and 2 (6.5) n (%) | best efficacy: CRh (Total (N = 31)): 2 (6.5%) n (%) and 2 (6.5) n (%) | best efficacy: CRi (Total (N = 31)): 4 (12.9%) n (%) and 4 (12.9) n (%) | best efficacy: NE (Total (N = 31)): 3 (9.7) n (%) | best efficacy: PD (Total (N = 31)): 1 (3-2) n (%) | best efficacy: PR (Total (N = 31)): 2 (6.5%) n (%) and 2 (6.5) n (%) | best efficacy: SD (Total (N = 31)): 17 (54.8) n (%) | Overall CR rate (subjects with 1-2 unfavorable prognostic factors): 20% | blast cells decreased compared with the baseline (the SD subject with FLT3-ITD^high mutation, at C2): 70%
